≈ marks a conversion by molar mass, not a printed value.
What was measured:
[1] = target: recombinant full-length human hydroxyacid oxidase 1 (HAO1), the equivalent of hGOX (Homo sapiens (Human), UniProt Q9UJM8); test: In-vitro human glycolate oxidase (hGOX) assay (Amplex red/HRP fluorescence); type: biochemical
Protocol: Biological Activity Assay: In-Vitro Human Glycolate Oxidase (hGOX) Assay
The in-vitro glycolate oxidase assay was performed using recombinant full-length human hydroxyacid oxidase 1 (HAO1), the equivalent of hGOX. […] Purified HAO1 was dissolved in assay buffer consisting of 10 mM NaCl, 110 mM KCl, 2 mM MgCl2, 50 mM HEPES (pH 7.4) and 0.01% Triton™ X-100.

[2] = Solubility in phosphate buffered saline (PBS), pH 7.4; type: physicochemical; conditions: phosphate buffer (PBS), aqueous buffer, kinetic from dmso stock; phosphate buffered saline pH 7.4, 1% DMSO, 1 hour shaking at room temperature
Protocol: (§1) For testing compound solubility in phosphate buffered saline (PBS), compound stock solutions were prepared at 10 mM in 100% DMSO. For testing in aqueous solution, the phosphate buffer was replaced with deionized, distilled water. Eleven grams Na2HPO4 (FW: 141.96 g/mol) and 3.5 g NaH2PO4.2H2O (FW: 156.03 g/mol) was added to 1 L Milli-Q water and adjusted to a pH to 7.4 with phosphoric acid or sodium hydroxide. For incubation, media were preheated to 37° C. Eight μL aliquots of reference and test compound stock solutions (10 mM) were added into 792 μL of 100 mM phosphate buffer (pH 7.4). The final DMSO concentration was 1%. Sample tubes were shaken for 1 hour at 1000 rpm at room temperature.
(§2) The calibration curve was prepared with 300-μM spiking solution (SS) in MeOH:acetonitrile (4:1). Six μL of 10 mM compound was added in 194 μL MeOH/acetonitrile (4:1). Samples were centrifuged for 10 minutes at 12,000 rpm to precipitate undissolved particles. Supernatants were transferred to a new tube or plate and dilute 10-fold and 100-fold with 100 mM buffer. Samples were prepared for LC-MS/MS analysis by adding 5 μL each sample (undiluted, 10-fold diluted, and 100-fold diluted) and 5 μL of standard curve samples to 95 μL of acetonitrile (containing internal standard).

[3] = Solubility in aqueous solution (deionized, distilled water); type: physicochemical; conditions: kinetic from dmso stock, 1% DMSO, read-out: Aqueous Solubility H2O
Protocol: as §1, §2

[4] = Metabolic stability in human liver microsomal preparation; type: in vitro ADME; conditions: pH 7.4, human liver microsomes, NADPH, 37° C.; for half-life at 1 μM: 0-45 min, read-out: Metabolic Stability t1/2
Protocol: For evaluating the metabolic stability in human liver microsomal preparation, three buffers were prepared. Buffer A had 1.0 L of 0.1 M monobasic potassium phosphate buffer containing 1.0 mM EDTA. Buffer B had 1.0 L of 0.1 M dibasic potassium phosphate buffer containing 1.0 mM EDTA. Buffer C had 0.1 M potassium phosphate buffer, 1.0 mM EDTA, adjusted to a pH 7.4 via titrating 700 mL buffer B with buffer A. Reference compound (ketanserin) and test compounds spiking solutions (500 μM) were prepared by adding 10 μL of 10 mM DMSO stock compound solution into 190 μL acetonitrile. A volume of 1.5 μL 500 μM spiking solution and 18.75 μL 20 mg/mL human liver microsomes were added into 479.75 μL of Buffer C on ice. A stock solution of 6 mM NADPH was prepared by dissolving NADPH into Buffer C.
Wells on an assay plate were iced and filled with 30 μL 1.5-μM spiking solution containing 0.75 mg/mL microsomes solution and designated for different timepoints (0-, 5-, 15-, 30-, 45-min). For the 0-min timepoint, 135 μL acetonitrile containing internal standard were added followed by 15 μL of NADPH stock solution (6 mM). All other plates were preincubated at 37° C. for 5 minutes and 15 μL NADPH stock solution (6 mM) were added to the plates to start the reaction. At 5-min, 15-min, 30-min, and 45-min, 135 μL acetonitrile containing internal standard were added to the wells of corresponding plates, respectively, to stop the reaction. After quenching, the plates were shaken on the vibrator (IKA, MTS 2/4) for 10 min at 600 rpm and then centrifuged at 5594×g for 15 minutes (Thermo Multifuge×3R). Fifty μL supernatant from each well were transported into a 96-well sample plate containing 50 μL of ultra-pure water (Millipore, ZMQS50F01) for LC/MS analysis.

[5] = Stability in human plasma; type: in vitro ADME; conditions: read-out: Plasma Stability T1/2
Protocol: Stability in Human Plasma.
Stock compounds were prepared for testing the stability in human plasma. First, 0.05 M sodium phosphate and 0.07 M NaCl buffer, pH 7.4, were pre-heated. In deionized water, 14.505 g/L Na2HPO 12H2O, 1.483 g/L NaH2PO4.2H2O and 4.095 g/L NaCl were dissolved. The basic solution was titrated with the phosphoric acid to pH 7.40. Frozen plasma was quickly thawed at 37° C. The plasma was centrifuged at 3,000 rpm for 8 minutes to remove clots, then pipetted and pooled as the plasma stock for the experiment. Only plasma within the range of pH 7.4 to pH 8 was used. If higher than pH 8, the plasma was discarded. The initial pH of the plasma was not adjusted to pH 7.4 with acid or by bubbling with carbon dioxide. By using a 5% carbon dioxide incubator and PBS buffer, a pH of 7.4 will be reached after the 4-hour equilibrium dialysis time. Plasma was iced until use.
Spiking solution A with 0.5 mM testing compounds was prepared by adding 10 μL of 10 mM test compounds stock solution to 190 μL DMSO. Spiking solution B with 0.02 mM testing compound was prepared by adding 40 μL of spiking solution A to 960 μL of […] sodium phosphate buffer with 0.5% BSA. The plasma and spiking solution B were prewarmed at 37° C. for 5 minutes. Ten μL of pre-warmed spiking solution B was added into the wells designated for all the time points (5, 15, 30, 45, 60 minutes). For the 0-minute timepoint, 400 μL acetonitrile containing internal standard were added to the wells of 0-minute plate and then 90 μL plasma were added. For the other timepoints, 90 μL of pre-warmed plasma were added into the wells (0, 5, 15, 30, 45, 60 minutes) and the timing was started. At 5, 15, 30, 45, 60 minutes, 400 μL acetonitrile containing internal standard were added to the wells of corresponding plates, respectively, to stop the reaction. After quenching, the plates were shaken on a vibrator (IKA, MTS 2/4) for 10 minutes at 600 rpm and then centrifuged at 5594×g for 15 minutes (Thermo Multifuge×3R). Fifty μL of supernatant was transferred from each well into a 96-well sample plate containing 50 μL ultra-pure water (Millipore, ZMQS50F01) for LC/MS analysis.

[6] = Protein binding (plasma equilibrium dialysis); type: in vitro ADME; conditions: 5 hours at 37° C.; for fraction unbound at 5 h, 1 μM: read-out: Protein Binding Fraction Bound (converted)
Protocol: For testing protein binding of stock compounds solubilized in DMSO, spiking solutions of test and reference compounds were prepared. Solution A (0.5 mM) was prepared by adding 10 μL of 10 mM stock solution into 190 μL of DMSO. Solution B (0.02 mM) was prepared by adding 8 μL of Solution A into 192 μL of 0.05 M sodium phosphate buffer. The final DMSO concentration in Solution B was 4%.
To prepare test and reference compounds in plasma, a 96-well plate with 380 μL aliquots of plasma in the wells designed for plasma and buffer, respectively. Twenty μL of Solution B (0.02 mM of test and reference compounds) were spiked into the pre-loaded plasma in the 96-well plate. The final test concentration is 1 μM containing 0.2% DMSO.
For dialysis sample loading a plasma again buffer system was prepared by applying aliquots of 100 μL of blank dialysis buffer to the receiver side of dialysis chambers and then applying aliquots of 100 μL of the plasma spiked with test and reference compounds to the donor side of the dialysis chamber. A 25-μL aliquot of the plasma spiked with test and reference compounds was added into a 96-well sample preparation plate as T″0″ plasma samples. Aliquots were mixed with the same volume of blank buffer (50:50, volume:volume). Samples were quenched with 200 μL of acetonitrile containing internal standard. The dialysis block was covered and a shaken at 60 rpm for 5 hours at 37° C.
After a 5-hour incubation, dialyzed samples were prepared from 25-μL aliquots from both the donor and receiver sides of the dialysis apparatus into new sample preparation plates. The aliquots were mixed with same volume of opposite matrixes. The samples were quenched with 200 μL acetonitrile containing internal standard. All 0-hour and 5-hour samples were vortexed at 600 rpm for 10 min followed by centrifugation at 5594×g for 15 minutes (Thermo Multifuge×3R). Fifty μL of the supernatants were transferred to anew 96-well plate and mixed with 50 μL Milli-Q water. The sample plate was covered and frozen at −20° C. until LC/MS/MS analysis.

Sequence of recombinant full-length human hydroxyacid oxidase 1 (HAO1), the equivalent of hGOX (Q9UJM8 whole entry): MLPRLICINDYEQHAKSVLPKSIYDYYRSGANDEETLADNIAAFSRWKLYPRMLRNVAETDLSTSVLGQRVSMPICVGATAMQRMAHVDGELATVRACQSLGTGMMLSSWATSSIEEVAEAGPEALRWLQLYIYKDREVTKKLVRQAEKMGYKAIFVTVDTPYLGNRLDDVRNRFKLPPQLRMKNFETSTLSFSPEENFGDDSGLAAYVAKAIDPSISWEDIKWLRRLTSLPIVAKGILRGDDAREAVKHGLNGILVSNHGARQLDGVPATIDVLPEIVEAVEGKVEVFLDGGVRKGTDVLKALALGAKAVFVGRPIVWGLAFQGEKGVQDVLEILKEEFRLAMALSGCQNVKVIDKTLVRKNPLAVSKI

Row | SMILES | IC50 [1] [µM] | solubility at 1 h [2] [µM] | solubility at 1 h [3] [µM] | CLint scaled at 1 μM [4] [L/h/kg] | half-life at 1 μM [4] [h] | half-life at 2 μM [5] [h] | recovery at 5 h, 1 μM [6] [%] | fraction unbound at 5 h, 1 μM [6]
1 | O=C(O)c1nn[nH]c1Oc1ccc(Cl)cc1 [Example I-033, 5-(4-Chlorophenoxy)-1H-1,2,3-triazole-4-carboxylic acid] | 0.067 | 121 (≈ 29 µg/mL) | 108 (≈ 25.8 µg/mL) | < 0.009 | > 83.3 | 1.26 | 123 | 
2 | O=C(O)c1nn[nH]c1Oc1cccc(S(F)(F)(F)(F)F)c1 [Example I-269, 5-(3-Pentafluorosulfanylphenoxy)-1H-1,2,3-triazole-4-carboxylic acid] | 0.105 | 109 (≈ 36 µg/mL) | 103 (≈ 34.2 µg/mL) | < 0.009 | > 83.3 | 2.19 | 91.8 | 0.01
3 | O=C(O)c1nn[nH]c1Oc1cccc(-c2cc(Cl)cc(Cl)c2)c1 [Example I-302, 5-((3′,5′-Dichloro-[1,1′-biphenyl]-3-yl)oxy)-1H-1,2,3-triazole-4-carboxylic acid] | 0.003 | 112 (≈ 39 µg/mL) | 90.7 (≈ 31.7 µg/mL) | < 0.009 | > 83.3 | 1.67 | 104 | 0.017
4 | O=C(O)c1nn[nH]c1Oc1cccc(C2CCCC2)c1 [Example I-267, 5-(3-Cyclopentylphenoxy)-1H-1,2,3-triazole-4-carboxylic acid] | 0.035 | 79.8 (≈ 21.8 µg/mL) | 82.6 (≈ 22.6 µg/mL) | < 0.009 | > 83.3 | 1.15 | 113 | 
5 | CC(C)=Cc1ccc(Oc2[nH]nnc2C(=O)O)cc1 [Example I-287, 5-(4-(2-Methylprop-1-en-1-yl)phenoxy)-1H-1,2,3-triazole-4-carboxylic acid] | 0.02 | 85.7 (≈ 22.2 µg/mL) | 82.5 (≈ 21.4 µg/mL) | 0.805 | 2.16 | 1.72 | 109 | 0.002
6 | O=C(O)c1nn[nH]c1Sc1ccc2ccccc2c1 [Example I-031, 5-(Naphthalen-2-ylthio)-1H-1,2,3-triazole-4-carboxylic acid] | 0.069 | 121 (≈ 32.8 µg/mL) | 110 (≈ 29.8 µg/mL) | 0.133 | 13.1 | 1.25 | 117 | 
7 | O=C(O)c1nn[nH]c1Oc1ccc(C2CCC2)cc1 [Example I-275, 5-(4-Cyclobutylphenoxy)-1H-1,2,3-triazole-4-carboxylic acid] | 0.022 | 115 (≈ 29.8 µg/mL) | 110 (≈ 28.5 µg/mL) | 1.1 | 1.58 | 1.7 | 98.5 | 
8 | COc1cc(-c2ccc(Oc3[nH]nnc3C(=O)O)cc2)ccc1F [Example I-271, 5-((4′-Fluoro-3′-methoxy-[1,1′-biphenyl]-4-yl)oxy)-1H-1,2,3-triazole-4-carboxylic acid] | 0.007 | 110 (≈ 36.2 µg/mL) | 90.1 (≈ 29.7 µg/mL) | 0.209 | 8.31 | 2.82 | 110 | 0.01
9 | CCC(CC)c1cccc(Oc2[nH]nnc2C(=O)O)c1 [Example I-276, 5-(3-(Pentan-3-yl)phenoxy)-1H-1,2,3-triazole-4-carboxylic acid] | 0.023 | 109 (≈ 30 µg/mL) | 103 (≈ 28.4 µg/mL) | 0.357 | 4.87 | 3.2 | 108 | 0.006
10 | O=C(O)c1[nH]nnc1Oc1ccc(C2CCCCC2)cc1 [Example I-266, 5-(4-Cyclohexylphenoxy)-1H-1,2,3-triazole-4-carboxylic acid] | 0.03 | 96.5 (≈ 27.7 µg/mL) | 108 (≈ 31 µg/mL) | 1.59 | 1.1 | 3.11 | 101 | 
11 | O=C(O)c1nn[nH]c1Oc1ccc(-c2ccccc2)cc1 [Example I-150, 5-([1,1′-Biphenyl]-4-yloxy)-1H-1,2,3-triazole-4-carboxylic acid] | 0.023 | 95.7 (≈ 26.9 µg/mL) | 83.1 (≈ 23.4 µg/mL) | 0.182 | 8.78 | 0.747 | 100 | 
